Counter-ions that a name gives are not always drawn.
Columns and labels:
human PIM1 = human PIM1 (Homo sapiens (Human), UniProt P11309); assay: Biochemical assay for inhibitors of PIM1 kinase activity (trans-phosphorylation, Dowex technique); conditions: ATP 200 μM, Aktide 25 μM, enzyme 1 nM; read-out: PIM-1 IC50
Experimental: Biochemical Assay for Inhibitors of PIM1 Kinase Activity
The inhibitory activity of putative kinase inhibitors and the potency of selected compounds were determined using a trans-phosphorylation assay.
Specific peptide or protein substrates were trans-phosphorylated by their specific ser-thr or tyr kinase in the presence of ATP traced with ^33P-γ-ATP, and in the presence of their own optimal buffer and cofactors.
At the end of the phosphorylation reaction, more than 98% unlabeled ATP and radioactive ATP were captured by an excess of the ion exchange dowex resin; the resin then settled down to the bottom of the reaction plate by gravity. Supernatant was subsequently withdrawn and transferred into a counting plate, then evaluated by β-counting.
Reagents/Assay Conditions i. Dowex Resin Preparation
500 g of wet resin (SIGMA, custom prepared resin DOWEX 1×8 200-400 mesh, 2.5 Kg) were weighed out and diluted to 2 L in 150 mM sodium formate, pH 3.00.
The resin was allowed to settle down (some hours) and then the supernatant was discarded.
After three washes as above over a couple of days, the resin was allowed to settle and two volumes (wrt the resin volume) of 150 mM sodium formate buffer were added.
The pH was then measured and should have been around 3.00.
The washed resin was stable for more than one week; the stock resin was kept at 4° C. before use.
The buffer for PIM1 assay was composed of HEPES 50 mM, at pH 7.5, with 10 mM MgCl2, 1 mM DTT, 3 μM NaVO3, and 0.2 mg/mL BSA.
Full-length human PIM1 was expressed and purified as described in Bullock A N, et al., J. Biol. Chem. 2005, 280, 41675-82.
1.7 μM PIM1 was incubated 1 h at 28° C. in the presence of 125 μM ATP.
ATP concentration: 200 μM; ^33P-γ-ATP: 6 nM; Enzyme concentration: 1 nM Substrate concentration Aktide (Chemical Abstract Service Registry Number 324029-01-8): 25 μM iv. Robotized Dowex Assay
The test mix consisted of:
1) 3× Enzyme mix (done in Kinase Buffer 3×), 5 μL/well
2) 3× substrate and ATP mix (done in ddH2O), together with ^33P-γ-ATP, 5 μL/well 3) 3× test compounds (diluted into ddH2O—3% DMSO)—5 μL/well See below for compound dilution and assay scheme […]
An automated station (Biomek FX, Beckman) was used for serial dilutions, producing 1:3 dilutions in 100% DMSO, from line A1 to A10, for all the compounds in the column.
Data were analyzed by an internally customized version of the “Assay Explorer” SW package, which provided sigmoidal fitting of the ten-dilution curves for IC50 determination in secondary assay/hit confirmation routines.

human PIM2 = human PIM2 (Homo sapiens (Human), UniProt Q9P1W9); assay: PIM2 kinase inhibition assay: Dowex technique; type: biochemical; conditions: ATP 4 μM, Aktide 5 μM, enzyme 1.5 nM; read-out: PIM-2 IC50
human PIM2, sequence (Q9P1W9 whole entry): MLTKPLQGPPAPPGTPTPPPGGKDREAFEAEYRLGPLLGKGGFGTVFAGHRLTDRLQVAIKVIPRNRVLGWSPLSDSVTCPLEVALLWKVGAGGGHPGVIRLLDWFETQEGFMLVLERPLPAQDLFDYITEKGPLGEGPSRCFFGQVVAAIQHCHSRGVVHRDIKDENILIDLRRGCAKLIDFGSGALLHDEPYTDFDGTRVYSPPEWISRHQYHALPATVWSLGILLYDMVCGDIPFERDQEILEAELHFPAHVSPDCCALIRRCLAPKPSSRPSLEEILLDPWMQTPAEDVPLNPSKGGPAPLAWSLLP
Experimental: Method for PIM2 Kinase Inhibition Assay: Dowex Technique
The buffer for PIM2 assay was composed of HEPES 50 mM, at pH 7.5, with 1 mM MgCl2, 1 mM DTT, 3 μM Na3VO4, and 0.2 mg/mL BSA.
Full-length human PIM2 was expressed and purified as described in Fedorov O, et al., PNAS 2007 104, 51, 20523-28. ii. Assay Conditions (Final Concentrations)
Enzyme concentration=1.5 nM; ATP=4 μM; ^33P-γ-ATP=1 nM
Aktide substrate (Chemical Abstract Service Registry Number 324029-01-8)=5 μM iii. Robotized Dowex Assay
See above: same procedure as described for PIM1.

BaF3-PIM1 cells = assay: In vitro cell proliferation assay (CellTiter-Glo), BaF3-PIM1; type: cell-based; conditions: 72 hours
Experimental: (§1) In Vitro Cell Proliferation Assay
(§2) BaF3-PIM1 and MV-4-11 cells were seeded at 125 cells/well and 1250 cells/well respectively in a 384-well white plates in complete medium and treated with compounds dissolved in 0.1% DMSO, 24 h after seeding.
(§3) The cells were incubated at 37° C. and 5% CO2 and after 72 hours the plates were processed using CellTiter-Glo assay (Promega) following the manufacturer's instruction.
(§4) CellTiter-Glo was a homogenous method based on the quantification of the ATP present, an indicator of metabolitically active cells. ATP was quantified using a system based on luciferase and D-luciferin resulting into light generation. The luminescent signal was proportional to the number of cells present in culture.
(§5) Briefly 25 μl/well reagent solution were added to each wells and after 5 minutes shacking microplates were red by Envision (PerkinElmer) luminometer. The luminescent signal was proportional to the number of cells present in culture.
(§6) Inhibitory activity was evaluated comparing treated versus control data using Assay Explorer (MDL) program. IC50 was calculated using sigmoidal interpolation curve.

MV-4-11 cells = assay: In vitro cell proliferation assay (CellTiter-Glo), MV-4-11; type: cell-based; conditions: Homo sapiens, MV4-11, 72 hours
Experimental: as §1
MV-4-11 (biphenotypic B myelomonocytic leukemia) cell line was obtained from ATCC.
Media for MV-4-11 cell line contained RPMI 1640 or EMEM plus 2 mM Glutamine and 10% Fetal bovine serum.
as §2, §3, §4, §5, §6

human PIM1, sequence (P11309 whole entry): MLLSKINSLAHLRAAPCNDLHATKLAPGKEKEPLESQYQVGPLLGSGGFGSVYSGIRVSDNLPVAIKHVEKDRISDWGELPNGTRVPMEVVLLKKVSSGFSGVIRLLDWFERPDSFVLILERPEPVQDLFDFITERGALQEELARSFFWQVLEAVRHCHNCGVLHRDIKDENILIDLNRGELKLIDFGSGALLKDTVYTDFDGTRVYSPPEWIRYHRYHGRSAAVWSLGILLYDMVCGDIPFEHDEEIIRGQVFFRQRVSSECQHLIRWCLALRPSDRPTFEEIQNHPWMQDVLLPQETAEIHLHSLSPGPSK

SMILES	IC50 (human PIM1) [nM]	IC50 (human PIM2) [nM]	IC50 (BaF3-PIM1 cells) [nM]	IC50 (MV-4-11 cells) [nM]
NCCC1CNC(=O)c2cc(-c3cccc(OC(F)(F)F)c3)c(-c3ccccc3)n21 (stereo not drawn) [Compound 28, 4-(2-aminoethyl)-6-phenyl-7-[3-(trifluoromethoxy)phenyl]-3,4-dihydropyrrolo[1,2-a]pyrazin-1(2H)-one hydrochloride]	7	55	275	1740
NCCC1CNC(=O)c2cc(-c3cccc(OC(F)(F)F)c3)c(-c3ccsc3)n21 (stereo not drawn) [Compound 29, 4-(2-aminoethyl)-6-(thiophen-3-yl)-7-[3-(trifluoromethoxy)phenyl]-3,4-dihydropyrrolo[1,2-a]pyrazin-1(2H)-one hydrochloride]	19	143	315	2620
Cc1cccc(-c2c(-c3cccc(OC(F)(F)F)c3)cc3n2C(CCN)CNC3=O)c1 (stereo not drawn) [Compound 31, 4-(2-aminoethyl)-6-(3-methylphenyl)-7-[3-(trifluoromethoxy)phenyl]-3,4-dihydropyrrolo[1,2-a]pyrazin-1(2H)-one hydrochloride]	23	51	326	2590
CN1CCC(NC(=O)c2ccc(-c3c(-c4cccc(OC(F)(F)F)c4)cc4n3C(CCO)CNC4=O)cc2)CC1 (stereo not drawn) [Compound 81, 4-{4-(2-hydroxyethyl)-1-oxo-7-[3-(trifluoromethoxy)phenyl]-1,2,3,4-tetrahydropyrrolo[1,2-a]pyrazin-6-yl}-N-(1-methylpiperidin-4-yl)benzamide trifluoroacetate]	11	69	6050	–
O=C1NCC(CCO)n2c1cc(-c1cccc(OC(F)(F)F)c1)c2-c1ccc(CO)cc1 (stereo not drawn) [Compound 84, 4-(2-hydroxyethyl)-6-[4-(hydroxymethyl)phenyl]-7-[3-(trifluoromethoxy)phenyl]-3,4-dihydropyrrolo[1,2-a]pyrazin-1(2H)-one]	11	90	224	–
NCC[C@H]1CNC(=O)c2cc(-c3cccc(OC(F)(F)F)c3)c(-c3ccc(O)cc3)n21 [Compound 93, (4S)-4-(2-aminoethyl)-6-(4-hydroxyphenyl)-7-[3-(trifluoromethoxy)phenyl]-3,4-dihydropyrrolo[1,2-a]pyrazin-1(2H)-one hydrochloride]	1	16	699	–
CS(=O)(=O)c1ccc(-c2c(-c3cccc(OC(F)(F)F)c3)cc3n2[C@@H](CCN)CNC3=O)cc1 [Compound 96, (4S)-4-(2-aminoethyl)-6-[4-(methylsulfonyl)phenyl]-7-[3-(trifluoromethoxy)phenyl]-3,4-dihydropyrrolo[1,2-a]pyrazin-1(2H)-one hydrochloride]	1	3	5470	–
NCCC[C@H]1CNC(=O)c2cc(-c3cccc(OC(F)(F)F)c3)c(-c3ccc(O)cc3)n21 [Compound 104, (4S)-4-(3-aminopropyl)-6-(4-hydroxyphenyl)-7-[3-(trifluoromethoxy)phenyl]-3,4-dihydropyrrolo[1,2-a]pyrazin-1(2H)-one hydrochloride]	4	48	7000	–
NCCC[C@H]1CNC(=O)c2cc(-c3cccc(OC(F)(F)F)c3)c(-c3ccc(CO)cc3)n21 [Compound 105, (4S)-4-(3-aminopropyl)-6-[4-(hydroxymethyl)phenyl]-7-[3-(trifluoromethoxy)phenyl]-3,4-dihydropyrrolo[1,2-a]pyrazin-1(2H)-one hydrochloride]	16	109	6950	–
CN1CCN(Cc2ccc(-c3c(-c4cccc(OC(F)(F)F)c4)cc4n3[C@@H](CCCl)CNC4=O)cc2)CC1 [Compound 106, (4S)-4-(2-chloroethyl)-6-{4-[(4-methylpiperazin-1-yl)methyl]phenyl}-7-[3-(trifluoromethoxy)phenyl]-3,4-dihydropyrrolo[1,2-a]pyrazin-1(2H)-one]	27	99	210	–
CS(=O)(=O)c1ccc(-c2c(-c3cccc(OC(F)(F)F)c3)cc3n2[C@@H](CCCN)CNC3=O)cc1 [Compound 109, (4S)-4-(3-aminopropyl)-6-[4-(methylsulfonyl)phenyl]-7-[3-(trifluoromethoxy)phenyl]-3,4-dihydropyrrolo[1,2-a]pyrazin-1(2H)-one hydrochloride]	11	82	6510	–
COc1ccc(-c2c(-c3cccc(OC(F)(F)F)c3)cc3n2[C@@H](CCN)CNC3=O)cc1F [Compound 113, (4S)-4-(2-aminoethyl)-6-(3-fluoro-4-methoxyphenyl)-7-[3-(trifluoromethoxy)phenyl]-3,4-dihydropyrrolo[1,2-a]pyrazin-1(2H)-one hydrochloride]	23	36	53	–
NCC[C@H]1CNC(=O)c2cc(-c3cccc(OC(F)(F)F)c3)c(-c3ccc(C4(N)CC4)cc3)n21 [Compound 130, (4S)-6-[4-(1-aminocyclopropyl)phenyl]-4-(2-aminoethyl)-7-[3-(trifluoromethoxy)phenyl]-3,4-dihydropyrrolo[1,2-a]pyrazin-1(2H)-one hydrochloride]	1	3	150	–
CN1CCN(Cc2ccc(-c3c(-c4cccc(OC(F)(F)F)c4)cc4n3[C@@H](CCCN)CNC4=O)cc2)CC1 [Compound 135, (4S)-4-(3-aminopropyl)-6-{4-[(4-methylpiperazin-1-yl)methyl]phenyl}-7-[3-(trifluoromethoxy)phenyl]-3,4-dihydropyrrolo[1,2-a]pyrazin-1(2H)-one dihydrochloride]	1	13	6450	–
CC(C)[C@H]1CNC(=O)c2cc(-c3cccc(OC(F)(F)F)c3)c(-c3ccc(CN)cc3)n21 [Compound 138, (4S)-6-[4-(aminomethyl)phenyl]-4-(propan-2-yl)-7-[3-(trifluoromethoxy)phenyl]-3,4-dihydropyrrolo[1,2-a]pyrazin-1(2H)-one]	12	173	276	–
Cc1cccc(-c2c(-c3cccc(OC(F)(F)F)c3)cc3n2[C@@H](CCNC(=N)N)CNC3=O)c1 [Compound 148, 1-(2-{(4S)-6-(3-methylphenyl)-1-oxo-7-[3-(trifluoromethoxy)phenyl]-1,2,3,4-tetrahydropyrrolo[1,2-a]pyrazin-4-yl}ethyl)guanidine hydrochloride]	8	12	110	–
CS(=O)(=O)c1ccc(-c2c(-c3cccc(OC(F)(F)F)c3)cc3n2[C@@H](CCNC(=N)N)CNC3=O)cc1 [Compound 149, 1-(2-{(4S)-6-[4-(methylsulfonyl)phenyl]-1-oxo-7-[3-(trifluoromethoxy)phenyl]-1,2,3,4-tetrahydropyrrolo[1,2-a]pyrazin-4-yl}ethyl)guanidine hydrochloride]	8	19	1770	–

Source: patent US9181258B2, “Substituted 3,4-dihydropyrrolo[1,2-a]pyrazin-1(2H)-ones as protein kinase inhibitors” (NERVIANO MEDICAL SCIENCES S.R.L., priority 2011, dated 2015)
